Publication PMC10307035, “Antiviral activity of singlet oxygen-photogenerating perylene compounds against SARS-CoV-2: Interaction with the viral envelope and photodynamic virion inactivation” (Virus Research, 2023)

Assays:
CaCo-2 cells [1] = experiment: Cytotoxicity assay (Cell Counting Kit-8) in CaCo-2 cells; format: cell-based, human; conditions: up to 10 µM
Description: (§1) To determine the overall cytotoxicity of the tested compounds, Vero cells were cultured for 24 h in 96-well plates to form a confluent monolayer, and then were treated with the tested compounds at concentrations of 2 and 10 µM. After 48 h of cultivation in the dark at 37 °C under 5% CO2, the cell culture medium was aspirated. The potential cytotoxicity of the tested perylene derivatives was determined based on cell viability using Cell Counting Kit-8 (Dojindo Molecular Technologies, Munich, Germany) according to the manufacturer's instructions. The cell viabilities of compound-treated Vero cells were compared with those of control DMSO-treated cells. We also used the above-described protocol to assess the cytotoxicity of the selected perylene antivirals, at concentrations ranging from 0 to 10 µM, in CaCo-2 and CRFK cells.

[2] = ROS generation measurement with DMA trap in DMSO; format: physicochemical
Description: ROS generation was also estimated using 9,10-dimethylanthracene (DMA), another specific fluorescent singlet oxygen trap, which forms nonfluorescent 9,10-dimethylanthracene endoperoxide after ROS-mediated DMA oxidation. Compounds (0, 0.1, 1, and 10 µM) in DMSO were mixed with DMA (0.5 µM), and these solutions were irradiated for 10 min at room temperature (RT) with light-emitting diodes (LED, 465–480 nm) having approximate power density of 30 mW/cm^2 (device description in Fig. S7). DMA fluorescence intensity was measured at ex/em wavelengths of 370/432 nm in the presence or absence of α-tocopherol (3 µg/mL) as an antioxidant. Singlet oxygen generation was accompanied by a decreased fluorescence signal of the DMA probe ([Zeng et al., 2020]).

[3] = test system: feline infectious peritonitis virus (FIPV); format: cell-based, feline coronavirus (FCoV); conditions: 0–10 µM
SARS-CoV-2 = experiment: Photodynamic inactivation of SARS-CoV-2 virions; format: cell-based
Description: Virus in DMEM (titer of 10^5 PFU/mL) was mixed with the compounds (0–10 µM) in a microtiter plate, in triplicate, and irradiated for 10 min at RT with LEDs (465–480 nm) having an approximate power density of 30 mW/cm^2 (device description in supplement). As a negative control, virus was incubated for 10 min in the dark at RT. Subsequently, both irradiated and non-irradiated virus samples were incubated in the dark at 37 °C for 60 min. All manipulation with the samples before and after this incubation, i.e., mixing the compound with the virus, pipetting into a microtiter plate, etc., were performed in daylight. Viral titers were determined by plaque assays (performed also in daylight) and expressed as PFU/mL, as previously described ([Stefanik et al., 2021]). To eliminate the influence of daylight on compound activity, the whole experiment, including all manipulation with samples, was performed in a dark room under red light. The virus sample was mixed with the indicated compounds at concentrations from 0 to 10 μM or 100 μM, incubated for 60 min at 37 °C and virus viability was evaluated using a plaque assay (Fig. 9A).

CRFK cells = experiment: Cytotoxicity assay (Cell Counting Kit-8) in CRFK cells; format: cell-based, Felis catus; conditions: up to 10 µM
Description: as §1

Vero cells = experiment: Light-induced cytotoxicity in Vero cells; format: cell-based, African Green Monkey; conditions: 0–10 µM, 465–480 nm 10 min, then 24 h in the dark
Description: To determine the light-induced cytotoxicity of the tested compounds, Vero cells were cultured for 24 h in 96-well plates to form a confluent monolayer, and then were treated with the tested compounds at concentrations of 0 to 10 µM. Then, the compound-treated cells were irradiated for 10 min at RT with LEDs (465–480 nm) having an approximate power density of 30 mW/cm^2 (device description in Fig. S7). As a negative control, compound-treated cells were incubated for 10 min in the dark at RT. Subsequently, both irradiated and non-irradiated cell monolayers were incubated in the dark at 37 °C for 24 h. Then, the cell culture medium was aspirated and the potential cytotoxicity of the tested perylene derivatives was determined based on cell viability using Cell Counting Kit-8 (Dojindo Molecular Technologies, Munich, Germany) according to the manufacturer's instructions.

CaCo-2 cells [4] = experiment: Cellular stress marker expression by RT-qPCR in CaCo-2 cells; format: cell-based, human
Description: RT-qPCR was performed to evaluate changes in the gene expression of cellular stress markers. […] Previous publications report the primer sequences and numbers of the Universal Probe Library (UPL; Roche Life Sciences, Germany) used for detection of ATF3, CDKN1A (p21), CYP1A1, DDIT3, HMOX1, HSPA1B (HSP70), and HSPA5 mRNAs ([Procházková et al., 2018]; [Šimečková et al., 2020]). […] TaqMan™ Gene Expression Assays (Thermo Fisher Scientific, Waltham, MA, USA) were used to determine the levels of FGF21 (Hs00173927_m1), GADD45A (Hs00169255_m1), GDF15 (Hs00171132_m1), and SRXN1 (Hs00607800_m1). The amplification was run in a 10-µL reaction mixture containing 1 µL of sample, using Kapa Probe Fast One-Step (Kapa Biosystems Pty, Cape Town, South Africa) on a LightCycler® 480 System (Roche Diagnostics, Czech Republic) using the previously published sequence ([Procházková et al., 2018]). Reference gene qPCR assays (Generi Biotech, Hradec Králové, Czech Republic) were used for the following housekeeping genes: human β2-Microglobulin (B2M; #3030), hydroxymethylbilane synthase (HMBS; #3032), and RNA polymerase II subunit A (POLR2A; #3035). We used an average of three reference gene Cp values to calculate the change in gene expression using the comparative threshold cycle method ([Schmittgen and Livak, 2008]).

[5] = Spectrofluorometric analysis of interaction with liposomes; format: physicochemical; conditions: 10 µM in PBS
[6] = test system: SARS-CoV-2 (Wuhan strain); experiment: Viral titer inhibition assay, SARS-CoV-2 in CaCo-2 cells; format: cell-based; conditions: 0–10 µM

CC(C)(C)C(=O)OCn1c(=O)c(C#Cc2ccc3c4cccc5cccc(c6cccc2c63)c54)cn(CC(=O)N(CCO)CCO)c1=O [Compound 13]
tolerability by CaCo-2 cells (CaCo-2 cells [1]): well-tolerated
ROS generation, DMA trap, under blue light ([2]; 465–480 nm, 30 mW/cm^2, 10 min): significant bleaching
ROS generation, DMA trap, in the dark or with α-tocopherol ([2]; 10 min, dark or α-tocopherol (3 µg/mL)): no/limited bleaching
replication of FIPV in CRFK cells [3]: potently suppressed the replication
antiviral effect under red light only (SARS-CoV-2; 100 µM, dark room, red light, 60 min at 37 °C): no antiviral effect
antiviral activity after blue light irradiation of virus-compound mixture (SARS-CoV-2; 465–480 nm, 30 mW/cm^2, 10 min, then 60 min at 37 °C in the dark, plaque assay): low-nanomolar
antiviral activity under red light only (SARS-CoV-2; up to 10 µM, dark room, red light, 60 min at 37 °C): completely disappeared
tolerability by CRFK cells (CRFK cells): well-tolerated
effect of blue light irradiation on cytotoxicity (Vero cells): dramatically increased
CYP1A1 expression (CaCo-2 cells [4]; CaCo-2 cells, 10 µM, all tested incubation periods): significantly decreased
expression of HMOX1, SRXN1, TXNRD1 (oxidative stress) (CaCo-2 cells [4]; CaCo-2 cells, 5, 24 and 48 h): did not increase
expression of HSPA5, DDIT3, HSPA1B (HSP70), CDKN1A (p21), GADD45A (CaCo-2 cells [4]; CaCo-2 cells, 5, 24 and 48 h): no changes
expression of early toxicity markers (ATF3, FGF21, GDF15) (CaCo-2 cells [4]; CaCo-2 cells, 5, 24 and 48 h): did not induce
penetration into liposomal membranes (in words) ([5]; EPC/Chol 70/30 mol% liposomes): penetrated the liposomal membranes very quickly and efficiently
steady-state fluorescence signal after mixing with liposomes ([5]; at 520 nm, after 1400 s): about 10^5 CPS
anti-SARS-CoV-2 activity in CaCo-2 cells [6]: sub-micromolar
